Measured values published in ChEMBL document CHEMBL6153025, “Multidrug-resistant bacteria quorum-sensing inhibitors: A particular focus on Pseudomonasaeruginosa” (Eur J Med Chem, 2025).
Values belong to the molecule of their own block, whether it stands above or below them.

What was measured:
[1] = system: Pseudomonas aeruginosa; experiment: Antivirulence activity in Pseudomonas aeruginosa PAO1 assessed as reduction in pyocyanin production at 10 uM incubated for 24 hrs by absorbance based analysis relative to control; type: functional; set-up: scale not given: the % may be the effect or the level left
[2] = system: Pseudomonas aeruginosa; experiment: Antibacterial activity against Pseudomonas aeruginosa ATCC 15442 assessed as reduction in bacterial cell growth incubated for 24 hrs by two fold serial microdilution method; type: functional
[3] = system: Bacillus subtilis; experiment: Antibacterial activity against Bacillus subtilis; type: functional
[4] = system: Bacillus pumilus; experiment: Antibacterial activity against Bacillus pumilus; type: functional
[5] = system: Staphylococcus aureus; experiment: Antibacterial activity against Methicillin-sensitive Staphylococcus aureus; type: functional
[6] = system: Staphylococcus aureus; experiment: Antibacterial activity against Methicillin-resistant Staphylococcus aureus; type: functional
[7] = system: Escherichia coli; experiment: Antibacterial activity against Escherichia coli; type: functional
[8] = system: Pseudomonas aeruginosa; experiment: Antibacterial activity against Pseudomonas aeruginosa; type: functional
[9] = system: Pseudomonas aeruginosa; experiment: Antibacterial activity against Pseudomonas aeruginosa PAO1-L; type: functional, organism-based
[10] = system: Pseudomonas aeruginosa; experiment: Antibiofilm activity against Pseudomonas aeruginosa PA14 assessed as reduction in biofilm biomass production at 18 ug/ml relative to control; type: functional; set-up: scale not given: the % may be the effect or the level left; settings: dose 18 µg/ml
[11] = system: Pseudomonas aeruginosa; experiment: Antivirulence activity against Pseudomonas aeruginosa PAO1 assessed as reduction in pyocyanin level at 10 uM relative to control; type: functional; set-up: scale not given: the % may be the effect or the level left
[12] = system: Pseudomonas aeruginosa; experiment: Antibacterial activity against Pseudomonas aeruginosa ATCC 27853 assessed as bacterial growth inhibition by agar diffusion assay; type: functional
[13] = system: Pseudomonas aeruginosa; experiment: Antibiofilm activity against Pseudomonas aeruginosa PAO1 assessed as inhibition of biofilm formation at 100 uM relative to control; type: functional; set-up: scale not given: the % may be the effect or the level left
[14] = Inhibition of quorum sensing system in Pseudomonas aeruginosa PAO1
[15] = biological target: T1, Transcriptional activator protein LasR (Pseudomonas aeruginosa (strain ATCC 15692 / PAO1 / 1C / PRS 101 / LMG12228)) (UniProt P25084); experiment: Inhibition of LasR-mediated quorum sensing system in Pseudomonas aeruginosa PAO1 at 128 ug/ml relative to control; settings: dose 128.0 µg/ml
T1 sequence (whole entry): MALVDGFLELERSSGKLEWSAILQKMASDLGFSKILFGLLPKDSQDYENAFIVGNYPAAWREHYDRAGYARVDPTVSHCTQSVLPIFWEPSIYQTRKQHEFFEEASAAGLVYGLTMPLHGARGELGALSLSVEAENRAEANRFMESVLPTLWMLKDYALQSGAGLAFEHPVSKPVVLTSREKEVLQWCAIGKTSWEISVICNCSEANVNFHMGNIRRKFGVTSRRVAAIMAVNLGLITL

[16] = system: Pseudomonas aeruginosa; experiment: Anti-virulence effect in Pseudomonas aeruginosa PAO1 assessed as inhibition of rhamnolipid production at 10 uM relative to control; type: functional; set-up: scale not given: the % may be the effect or the level left
[17] = Inhibition of quorum sensing system in Pseudomonas aeruginosa PAO1 expressing lasB-gfp

Compound: Clc1ccc2c(NCCCCCCCCNCc3ncc[nH]3)ccnc2c1
Activity [1]: 97% | MIC [2]: > 2 µM

Compound: COc1ccc(OCCCCC(=O)NNC(=O)Cn2c(=O)oc3ncccc32)cc1
MIC [3]: > 512 µg/mL | MIC [4]: > 512 µg/mL | MIC [5]: > 512 µg/mL | MIC [6]: > 512 µg/mL | MIC [7]: > 512 µg/mL | MIC [8]: > 512 µg/mL

IC50 [9]: 4.3 µM
Compound: N#CCc1ccc(OCC(=O)Cn2cnc3ccc(Cl)cc3c2=O)cc1

Compound: COc1cc(/C=C/c2cncnc2)c(C(=O)O)c(O)c1CC=C(C)C
Activity [10]: 36.11%

Compound: O=C(CCCCCOc1cccc(C(F)(F)F)c1)NN1C(=O)CN(c2ccccc2O)C1=O
MIC [3]: > 512 µg/mL | MIC [4]: > 512 µg/mL | MIC [5]: > 512 µg/mL | MIC [7]: > 512 µg/mL | Activity [11]: 38.62%

MIC [12]: > 128 µg/mL
Compound: COc1ccccc1C(=O)CSc1ccc2ccccc2n1

Compound: O=c1cc(-c2ccc(O)c(O)c2)oc2cc(O)c([C@@H]3O[C@H](CO)[C@@H](O)[C@H](O)[C@H]3O)c(O)c12 [ISOORIENTIN]
Activity [13]: 18%

Compound: Clc1ccc2c(NCCCCCCCCNCc3cc4ccccc4s3)ccnc2c1
Activity [1]: 97% | MIC [2]: > 2 µM

IC50 [14]: 46.8 µM
Compound: O=C(CNc1ccc(C(=O)/C=C/c2ccc(Br)cc2)cc1)N[C@@H]1CCOC1=O

IC50 [14]: 37.6 µM
Compound: O=C(CNc1ccc(C(=O)/C=C/c2ccccc2Br)cc1)N[C@@H]1CCOC1=O

Compound: CCCCCCCCNc1ccnc2cc(Cl)ccc12
Activity [1]: 80% | MIC [2]: > 2 µM

IC50 [9]: 4.3 µM
Compound: N#CCc1ccc(OCC(F)Cn2cnc3ccc(Cl)cc3c2=O)cc1 (stereo unspecified)

Compound: O=c1c(O[C@@H]2O[C@H](CO)[C@H](O)[C@H](O)[C@H]2O)c(-c2ccc(O)c(O)c2)oc2cc(O)cc(O)c12 [HYPEROSIDE]
Activity [13]: 18%

inhibition [15]: 50.2%
Compound: O=C(CC1CCC(F)CC1)Oc1cccc([N+](=O)[O-])c1 (stereo unspecified)

Compound: COc1ccc(OCCCCCCC(=O)NNC(=O)Cn2c(=O)oc3ncccc32)cc1
MIC [3]: > 512 µg/mL | MIC [4]: > 512 µg/mL | MIC [5]: > 512 µg/mL | MIC [6]: > 512 µg/mL | MIC [7]: > 512 µg/mL | MIC [8]: > 512 µg/mL | Activity [16]: 6.34%

Compound: COc1cc(/C=C/c2ccc(S(F)(F)(F)(F)F)cc2)c(C(=O)O)c(O)c1CC=C(C)C
Activity [10]: 50%

Compound: COc1cc(/C=C/C2C(C)=NC(C)=CN2C)c(C(=O)O)c(O)c1CC=C(C)C (stereo unspecified)
Activity [10]: 59.68%

Compound: Clc1ccc2c(NCCCCCCCCNCc3csc4ccccc34)ccnc2c1
Activity [1]: 97% | MIC [2]: > 2 µM

Compound: COc1ccc(OCCCCCC(=O)NN2C(=O)CN(c3ccccc3O)C2=O)cc1
MIC [3]: > 512 µg/mL | MIC [4]: > 512 µg/mL | MIC [5]: > 512 µg/mL | MIC [7]: > 512 µg/mL | MIC [8]: > 512 µg/mL | Activity [11]: 61%

MIC [12]: > 128 µg/mL
Compound: COc1cc(C(=O)CSc2ccc3ccccc3n2)ccc1O

Compound: FC(F)(F)c1ccc(CNCCCCCCCCNc2ccnc3cc(Cl)ccc23)cc1
Activity [1]: 97% | MIC [2]: > 2 µM

Compound: O=C(CCCCCOc1ccc(C(F)(F)F)cc1)NN1C(=O)CN(c2ccccc2O)C1=O
MIC [3]: > 512 µg/mL | MIC [4]: > 512 µg/mL | MIC [5]: > 512 µg/mL | MIC [7]: > 512 µg/mL | MIC [8]: > 512 µg/mL | Activity [11]: 38.62%

IC50 [14]: 46.8 µM
Compound: O=C(CNc1ccc(C(=O)/C=C/c2ccc(Cl)cc2)cc1)N[C@@H]1CCOC1=O

Compound: COc1cc(/C=C/c2cccc3cccnc23)c(C(=O)O)c(O)c1CC=C(C)C
Activity [10]: 35.61%

IC50 [14]: 26.5 µM
Compound: O=C(CNc1ccc(C(=O)/C=C/c2ccc(Br)cc2F)cc1)N[C@@H]1CCOC1=O

Compound: COc1cc(/C=C/c2cn(Cc3ccccc3)nn2)c(C(=O)O)c(O)c1CC=C(C)C
Activity [10]: 51.38%

IC50 [14]: 62.5 µM
Compound: O=C(CNc1ccc(C(=O)/C=C/c2ccccc2)cc1)N[C@@H]1CCOC1=O

MIC [12]: > 128 µg/mL
Compound: O=C(CSc1nc2ccccc2s1)c1ccc(Cl)c(Cl)c1

Compound: O=Cc1ccc(O)c(O)c1 [PROTOCATECHUALDEHYDE]
Activity [13]: 18%

IC50 [17]: 2.4 µM | IC50 [9]: 4.3 µM
Compound: N#CCc1ccc(OCC(N)Cn2cnc3ccc(Cl)cc3c2=O)cc1 (stereo unspecified)

inhibition [15]: 92.3%
Compound: O=C(OCCN1CCOCC1)c1cccc([N+](=O)[O-])c1

inhibition [15]: 50.2%
Compound: O=C(Oc1cccc([N+](=O)[O-])c1)C(=O)N1CCOCC1

Compound: O=C(CCCCCOc1ccc(Cl)cc1)NNC(=O)Cn1c(=O)oc2ncccc21
MIC [3]: > 512 µg/mL | MIC [4]: > 512 µg/mL | MIC [5]: > 512 µg/mL | MIC [6]: > 512 µg/mL | MIC [7]: > 512 µg/mL | MIC [8]: > 512 µg/mL

Compound: O=C(CCCCCOc1ccc(F)cc1)NN1C(=O)CN(c2ccccc2O)C1=O
MIC [3]: > 512 µg/mL | MIC [4]: > 512 µg/mL | MIC [5]: > 512 µg/mL | MIC [7]: > 512 µg/mL | MIC [8]: > 512 µg/mL | Activity [11]: 61%

IC50 [9]: 6.4 µM
Compound: N#CCc1ccc(OCC(O)Cn2cnc3ccc(Cl)cc3c2=O)cc1F (stereo unspecified)
